Experimental data reported in patent publication US9694050B2, “THY1 (CD90) as a novel therapy to control adipose tissue accumulation” (University of Rochester, priority 2012, dated 2017).

Key:
[1] = tested on: human pre-adipocyte fibroblasts; experiment: Adipogenesis of human pre-adipocyte fibroblasts in adipogenic medium (Thy1 siRNA, SU6656); format: cell-based
Protocol: 3T3-L1 cells or primary fibroblasts were cultured to confluence before addition of the adipogenic medium. Cells were treated with an adipogenic medium containing 0.5 mM 3-isobutyl-1-methylxanthine, 0.25 μM dexamethasone, and 1 μg/ml insulin (all three from Sigma Aldrich, St. Louis, Mo.), 2 μM rosiglitazone (Cayman) for two days. After two days medium was replaced with dexamethasone, insulin and rosiglitazone for another 5-8 days. Media was replaced every 2 days through the duration of the experiment. After differentiation cells were analyzed for lipid accumulation and adipogenesis by Oil-red-O (Sigma Aldrich, St. Louis, Mo.) staining and AdipoRed (Cayman) staining as described previously. Lehmann et al., “Novel Anti-adipogenic Activity Produced by Human Fibroblasts,” Am J Physiol Cell Physiol 299(3):C672-81 (2010), which is hereby incorporated by reference in its entirety.
5-8×10^4 or 1×10^5 cells were seeded into 24 well or 6 well cell culture plates (Corning) and subsequently were transiently transfected with 50-200 nM of siRNA (Ambion) using Lipofectamine 2000 (Invitrogen) as the transfection reagent and following the manufacture's protocol. The cells were incubated with siRNA specific for Thy1 specific or a corresponding non-specific control siRNA for 3-4 days before the cells were subjected to adipogenic differentiation experiments as described above. At the start of the adipogenic differentiation experiment, the cells were again transiently transfected with 100 nM Thy1-specific or control siRNA.
Thy1 specific or control siRNA was introduced into human pre-adipocyte fibroblasts using Lipofectamine 2000. Fibroblasts were then treated with an adipogenic medium and adipogenesis was measured by visual inspection of lipid droplets, FABP4 expression and lipid accumulation. Total Thy1 protein expression and Thy1 surface expression were analyzed by western blot and flow cytometry, respectively. […] Cell images were captured to show the presence of lipid droplets in fibroblasts treated with adipogenic medium, and are shown in FIG. 12B. […]

Thy1 [2] = experiment: Thy1 expression in mouse MSCs cultured with obesogens (flow cytometry, western blotting); format: cell-based; conditions: 96 hrs; for Thy1, western blotting: concentrations in figure
Protocol: Mouse MSCs were cultured with obesogens for 96 hrs, harvested, and analyzed for Thy1 expression by flow cytometry or western blotting.

Thy1 [3] = experiment: Thy1 expression in hMSCs treated with obesogens (qPCR, flow cytometry); format: cell-based, human
Protocol: In particular, hMSCs were induced to adipocytes with a rosiglitazone cocktail (adipogenic) or cocktail containing the putative obesogens BPA (1 μM), TBBPA (5 μM), or TBT (100 nM). […] The obesogen doses selected are based on literature and represent concentrations proposed to be found in human tissues. Roos et al., “Circulating Levels of Persistent Organic Pollutants in Relation to Visceral and Subcutaneous Adipose Tissue by Abdominal MRI,” Obesity (Silver Spring) (2012) and Antizar-Ladislao, B, “Environmental Levels, Toxicity and Human Exposure to Tributyltin (TBT)-Contaminated Marine Environment. A Review,” Environ Int 34(2):292-308 (2008), each of which is hereby incorporated by reference in its entirety. As noted above, the cells were cultured in adipogenic medium containing rosiglitazone, a PPARγ ligand that promotes adipogenesis and obesity, and the noted putative obesogens.
qPCR analysis of the mRNA levels of Thy1 and the adipogenic marker FABP4 was conducted. […] The same samples as in FIG. 4A were used to measure Thy1 mRNA levels by qPCR. […] Thy1 and FABP4 levels were normalized to TBP mRNA levels (control gene).
hMSCs were also treated with vehicle (DMSO), 20 uM TBBPA, or 10 uM rosiglitazone for 72 hrs, harvested and stained with a fluorescent anti-Thy1 antibody for analysis of Thy1 by flow cytometry.

human stem cells = experiment: Adipogenesis of human stem cells / preadipocytes given a proadipogenic cocktail; format: cell-based
Excerpt: Thy1 (or Thy-1, also termed CD90) is an N-glycosylated, glycophosphatidylinositol (GPI)-anchored membrane protein that was originally identified as a surface marker on mouse T cells and thymocytes. Thy1 is a surface marker of unknown function that is expressed on some stem cells and some fibroblasts. While Thy1 was discovered more than 35 years ago, its molecular function remains a mystery. The inventors of the present application have discovered that Thy1 is more than a surface marker; rather, it can control the fate of cells by preventing adipogenesis. […] Similarly, deliberate genetic over-expression of Thy1 has the same effect, preventing cells from becoming adipocytes.

Erk1/2 = experiment: Western blot for phospho-Erk1/2 in 3T3-L1 cells; format: cell-based, mouse; conditions: Thy1 expressed in 3T3-L1 cells
Protocol: 3T3-L1 cells infected with a control or Thy1-expressing lentivirus (LV) were treated with 10 nM insulin-like growth factor (IGF)-1 for 0, 5, or 10 minutes. Cells were treated as described, then whole cell lysates were harvested and analyzed by western blot for phospho-Erk1/2 and GAPDH expression (FIG. 18A). Western blot images were analyzed by densitometry and phospho-Erk1/2 levels were normalized to GAPDH to adjust for total protein variations (FIG. 18B).
PPARγ phosphorylation at serine 82 (S82) inhibits ligand binding and severely reduces its ability to promote adipogenesis. […] To investigate if Thy1 regulates the Erk pathway, Thy1 was expressed in 3T3-L1 cells and the activity of Erk1/2 (which corresponds to phospho-Erk) was monitored by western blotting (see FIGS. 18A and 18B). […]

[4] = Diet induced obesity in mice on a high fat diet, soluble Thy1 injected; format: in vivo, mouse; conditions: high fat diet (60% kcals from fat), minimum of 8 weeks, 0.2 or 0.4 mg/kg intravenous or subcutaneous
Excerpt: Milligram quantities of soluble Thy1 will be injected into mice receiving a high fat (60% kcals from fat) diet.
Mice fed a high fat diet and treated as in Table 2 will be weighed weekly for the duration of the experiment (minimum of 8 weeks). Following the study, mice will be sacked for fat depot quantification, histologic analysis and fat tissue will be analyzed by western blot for the adipogenic markers FABP4, C/EBPα, Fyn, and phospho-Fyn. Serum samples will also be acquired for analysis of Thy1, adiponectin and glucose levels.

PPARγ = experiment: Western blot for PPARγ protein in 3T3-L1 cells; format: cell-based, mouse; conditions: expression of Thy1 in 3T3-L1 preadipocyte fibroblasts
Excerpt: Orbital fibroblasts from two individual human donors were separated into Thy1^− and Thy1+ subsets. Cells were harvested and analyzed by western blotting for PPARγ and actin (loading control). […] In addition, 3T3-L1 cells were transduced with control or human Thy1− encoding lentiviral (Lv) particles.
To test how Thy1 affects PPARγ, it was first considered whether Thy1 would down-regulate the expression of PPARγ protein. However, two different strains of human TED orbital fibroblasts, sorted into Thy1+ or Thy1^− subsets, expressed similar levels of PPARγ (FIG. 15A). […] Thus, other ways that Thy1 could influence the function of PPARγ were considered, as described below.

Fyn = experiment: Western blot for phospho-STAT5 (Fyn mediated phosphorylation); format: cell-based, human; conditions: Thy1 expression
[5] = induced to differentiate into adipocytes
[6] = human and mouse mesenchymal stem cells

## CN(C)S(=O)(=O)c1ccc2c(c1)/C(=C/c1cc3c([nH]1)CCCC3)C(=O)N2 [SU6656]
[1]; Thy1 siRNA followed by adipocyte induction
  adipogenic effect of Thy1 siRNA (FABP4 mRNA, lipid accumulation): ablated
[1]; [5]
  FABP4 protein expression, % of control, western blot: 30%
  lipid accumulation, % of control: 55%

## CC(C)(c1cc(Br)c(O)c(Br)c1)c1cc(Br)c(O)c(Br)c1 [TBBPA, tetrabromobisphenol-A]
Thy1 [2]; 5 μM
  Thy1 surface expression, Mean Fluorescent Intensity: dramatic reduction
Thy1 [2]
  Thy1, western blotting: reduction
Thy1 [3]; MSCs treated with obesogens
  Thy1 expression: reduced
Thy1 [3]; hMSCs, 20 uM, 72 hrs, vs vehicle (DMSO)
  surface expression of Thy1, flow cytometry: decreased
Thy1 [3]; [6]
  Thy1 expression: dramatically reduced

## CCC[CH2][Sn]([CH2]CCC)[CH2]CCC [TBT, tributlytin]
Thy1 [2]
  Thy1, western blotting: reduction
Thy1 [3]; MSCs treated with obesogens
  Thy1 expression: reduced
Thy1 [3]; [6]
  Thy1 expression: dramatically reduced

## Thy1: N-glycosylated, GPI-anchored membrane protein; human Thy1 SEQ ID NO:1; soluble form lacks the GPI anchor
Human stem cells
  human stem cell adipogenesis: blunts
Human stem cells; human and mouse preadipocytes and primary human stem cells, proadipogenic cocktail containing a PPARγ ligand
  becoming fat cells: prevent
Erk1/2
  increase of Erk1/2 phosphorylation compared to control 3T3-L1 cells: greater than 3 fold
[4]
  fat accumulation: significantly less fat accumulation
  weight gain: significantly less weight
PPARγ
  PPARγ protein levels: did not alter
Fyn
  phospho-STAT5 levels, western blotting: reduces
